# Laboratory results reported in patent publication US8158792B2, “Spiropiperidines for use as tryptase inhibitors” (Janssen Pharmaceutica N.V., priority 2007, dated 2012).
# Molecular target: human lung tryptase
# Assay: β-Tryptase In-Vitro Enzyme Assay
# Type: biochemical
# Conditions: human lung tryptase 1 nM, substrate H-D-HHT-Ala-Arg-pNa 500 μM, pH 7.4, room temperature
# Protocol: The β-tryptase assay was conducted with human lung tryptase (Cortex Biochem #CP3033) in an aqueous buffer (10 mM Tris, 10 mM Hepes, 150 mM NaCl, 0.1% PEG 8000, pH 7.4) using the chromogenic substrate H-D-HHT-Ala-Arg-pNa. […] Percent inhibition was calculated by comparing the initial reaction velocity of samples without inhibitor to those with inhibitor. The initial reaction velocities were analyzed using Microsoft Excel.
row,SMILES,IC50
1,"NCc1ccc2c(c1)C1(CCN(C(=O)c3ccc(Sc4ccccc4)o3)CC1)CO2 [Cpd 23, 1-[(5-phenylthio)-furan-2-yl]carbonyl-5′-aminomethyl-spiro[piperidine-4,3′-(2H)-benzo[b]furan]]",90 nM
2,"NCc1ccc2c(c1)C1(CCN(Cc3ccc(Cl)c(Cl)c3)CC1)CO2 [Cpd 158, 1-(3,4-dichloro-benzyl)-5′-aminomethyl-spiro[piperidine-4,3′-(2H)-benzo[b]furan]]",4500 nM
3,"CC1(C)CC(=O)c2c(SCc3ccccc3)sc(C(=O)N3CCC4(CC3)COc3ccc(CN)cc34)c2C1 [Cpd 232, 1-(3-benzylthio-4-oxo-6,6-dimethyl-6,7-dihydro-5H-benzo[c]thien-1-yl)carbonyl-5′-aminomethyl-spiro[piperidine-4,3′-(2H)-benzo[b]furan]]",15 nM
4,"CCc1ccc2c(Cl)c(C(=O)N3CCC4(CC3)COc3ccc(CN)cc34)sc2c1 [Cpd 271, 1-(3-chloro-6-ethyl-benzo[b]thien-2-yl)carbonyl-5′-aminomethyl-spiro[piperidine-4,3′-(2H)-benzo[b]furan]]",2800 nM
5,"NCc1ccc2c(c1)C1(CCN(C(=O)c3sc(Cl)c(Cl)c3Cl)CC1)CO2 [Cpd 275, 1-(3,4,5-trichloro-thien-2-yl)carbonyl-5′-aminomethyl-spiro[piperidine-4,3′-(2H)-benzo[b]furan]]",22 nM
6,"CC(=O)N1CC2(CCN(C(=O)c3ccc(C#Cc4ccccc4)o3)CC2)c2cc(CN)ccc21 [Cpd 339, 1-(5-phenylethynyl-furan-2-yl)carbonyl-1′-methylcarbonyl-5′-aminomethyl-spiro[piperidine-4,3′-(2H)-indole]]",15 nM
7,"NCc1ccc2c(c1)C1(CCN(C(=O)/C=C/c3ccsc3)CC1)CO2 [Cpd 255, (E)-1-(thien-3-ylethenyl)carbonyl-5′-aminomethyl-spiro[piperidine-4,3′-(2H)-benzo[b]furan]]",580 nM
8,"NCc1ccc2c(c1)C1(CCN(C(=O)C(c3ccccc3)c3ccccc3)CC1)CO2 [Cpd 290, 1-(1-oxo-2,2-diphenyl-ethyl)-5′-aminomethyl-spiro[piperidine-4,3′-(2H)-benzo[b]furan]]",160 nM
9,"C/C(=C/c1ccccc1)C(=O)N1CCC2(CC1)COc1ccc(CN)cc12 [Cpd 181, (Z)-1-(1-methyl-2-phenylethenyl)carbonyl-5′-aminomethyl-spiro[piperidine-4,3′-(2H)-benzo[b]furan]]",1700 nM

# Continued, values first:
row,IC50,SMILES
1,34 nM,"NCc1ccc2c(c1)C1(CCN(C(=O)c3ccc(F)c(Cl)c3)CC1)CO2 [Cpd 27, 1-(3-chloro-4-fluoro-phenyl)carbonyl-5′-aminomethyl-spiro[piperidine-4,3′-(2H)-benzo[b]furan]]"
2,290 nM,"NCc1ccc2c(c1)C1(CCN(C(=O)/C=C/c3ccc(Cl)c(Cl)c3)CC1)CO2 [Cpd 116, (E)-1-(3,4-dichloro-phenylethenyl)carbonyl-5′-aminomethyl-spiro[piperidine-4,3′-(2H)-benzo[b]furan]]"
3,830 nM,"Cc1cccc2c(C(=O)N3CCC4(CC3)COc3ccc(CN)cc34)c[nH]c12 [Cpd 249, 1-(7-methyl-indol-3-yl)carbonyl-5′-aminomethyl-spiro[piperidine-4,3′-(2H)-benzo[b]furan]]"
4,240 nM,"NCc1ccc2c(c1)C1(CCN(C(=O)c3ccc(COc4ccccc4Br)o3)CC1)CO2 [Cpd 213, 1-[5-(2-bromo-phenoxymethyl)-furan-2-yl]carbonyl-5′-aminomethyl-spiro[piperidine-4,3′-(2H)-benzo[b]furan]]"
5,1.2 nM,"Cc1ccccc1C#Cc1ccc(C(=O)N2CCC3(CC2)COc2ccc(CN)cc23)o1 [Cpd 153, 1-[5-(2-methyl-phenylethynyl)-furan-2-yl]carbonyl-5′-aminomethyl-spiro[piperidine-4,3′-(2H)-benzo[b]furan]]"
6,110 nM,"Cc1nc(C)c(C(=O)N2CCC3(CC2)COc2ccc(CN)cc23)s1 [Cpd 118, 1-(2,4-dimethyl-thiazol-5-yl)carbonyl-5′-aminomethyl-spiro[piperidine-4,3′-(2H)-benzo[b]furan]]"
7,39 nM,"NCc1cc2c(cc1F)OCC21CCN(C(=O)c2ccc(C#Cc3ccccc3)o2)CC1 [Cpd 311, 1-(5-phenylethynyl-furan-2-yl)carbonyl-5′-aminomethyl-6′-fluoro-spiro[piperidine-4,3′-(2H)-benzo[b]furan]]"
8,130 nM,"NCc1ccc2c(c1)C1(CCN(C(=O)c3ccc(-c4ccccn4)s3)CC1)CO2 [Cpd 120, 1-(5-pyridin-2-yl-thien-2-yl)carbonyl-5′-aminomethyl-spiro[piperidine-4,3′-(2H)-benzo[b]furan]]"
9,450 nM,"NCc1ccc2c(c1)C1(CCN(C(=O)Cc3ccc(I)cc3)CC1)CO2 [Cpd 96, 1-(4-iodo-benzyl)carbonyl-5′-aminomethyl-spiro[piperidine-4,3′-(2H)-benzo[b]furan]]"
10,760 nM,"NCc1ccc2c(c1)C1(CCN(C(=O)c3csc(-c4ccncc4)n3)CC1)CO2 [Cpd 122, 1-(2-pyridin-4-yl-thiazol-4-yl)carbonyl-5′-aminomethyl-spiro[piperidine-4,3′-(2H)-benzo[b]furan]]"
11,28 nM,"CSc1sc(C(=O)N2CCC3(CC2)COc2ccc(CN)cc23)cc1C#N [Cpd 258, 1-(4-cyano-5-methylthio-thien-2-yl)carbonyl-5′-aminomethyl-spiro[piperidine-4,3′-(2H)-benzo[b]furan]]"
